Assay results reported in patent publication US20170095512A1, “METHODS OF INDUCING MYELINATION AND MATURATION OF OLIGODENDROCYTES” (KADIMASTEM LTD., priority 2014, published 2017).
Entries after “also recorded” stand apart in the source; their conditions may differ.

Experiments:
[1] = system: human OPC derived from ES cells (O4+ cells); assay: hOPC differentiation assay, O4+ cells (immunostaining, high content screening); assay type: cell-based
Description: In order to initiate differentiation 20,000 GPCs were seeded in each well of Matrigel coated plates of 96 wells, or on PolyD-Lysine/laminin (PDL/lam)-coated 96 well plates. Cells were grown in GM media for two to three days. Then GM was replaced by differentiation medium without growth factors, (DMEM/F12, 1% B27, 0.5% N2, Vitamin C (Sigma, 50 ug/ml). Differentiation medium was supplemented with the following tested compounds: […] All media were replaced every other day. Oligodendrocytes were characterized by the presence of the antigen detected by the monoclonal antibody O4 (IgM (R&D). Living cells reacted with O4 antibody diluted 1/200 in medium without growth factors (50 ul/well) and left for 40 minutes in the incubator at 37° C., washed once with GM, fixed with PFA 4% (170 ul per well) for 20 minutes at room temperature, washed 3 times with PBS. Dapi diluted to 0.5 ug/ml was introduced in the second wash for 10 min Afterwards the preparation was blocked with 5% normal goat serum in PBS-- for 20 min, washed and reacted with goat anti mouse IgM Ab-FITC conjugated (Millipore cat A[…]) diluted 1/500, for 45 minutes at room temperature, and washed three times with PBS--. ArrayScan VTI HCS reader system (Cellomis, Thermo-scientific) was used for scanning at least 20 fields for each tested well under 10× objective in both assays (differentiation and myelination). Cellomics Neural profiling bio-application was used for processing and analyzing the images. For differentiation assay, the following parameters were tested: number and percentage of O4+ cells, number of processes, processes length and number of branching points. For myelination assay, the same morphological parameters were tested and in addition: areas of myelinated axons in pixels (MBP&NF overlap area) and Number of myelinated regions (MBP&NF overlap count) were also analyzed. Modifications in the Neuro-profiling bio-application were conducted for this specific purpose. T-test analysis was used to compare between treatments. The 4-parameter Hill-Slope curve fittings were generated by GraphPad Prism software using least squares fitting method and EC50 values were calculated.

[2] = system: human oligodendrocytes precursor cells (hOPC); assay: Microarray gene expression analysis of LDN treated hOPC; assay type: cell-based; conditions: 125 nM, 35 days
Description: LDN (125 nM) was supplemented to human oligodendrocytes precursor cells (hOPC) for 35 days. Microarray analysis was performed on duplicate of LDN treated and Non-treated (NT) hOPC.

Structure (SMILES): c1ccc2c(-c3cnn4cc(-c5ccc(N6CCNCC6)cc5)cnc34)ccnc2c1 [LDN-193189]
- O4+ cells number / conversion of Olig2+ cells into O4+ cells (summary statement) [1]: increased the number of O4+ and Olig2+ cells; also recorded: stimulates
- number of O4+ cells ([1]; day 21, Noggin 50 ng/ml + PDGF 20 ng/ml, Dorsomorphin 2 μM, LDN-193189 125 nM): increase in the number of O4+ cells
- number of processes per cell ([1]; dose dependent manner): increased
- total length of processes ([1]; dose dependent manner): increased
- LDN expression value: ADAMTS5, cluster 16924620 [2]: 4.59
- LDN expression value: AN04, cluster 16755712 [2]: 3.1
- LDN expression value: ARHGAP28, cluster 16850724 [2]: 3.09
- LDN expression value: ASPN, cluster 17095887 [2]: 9.23
- LDN expression value: ATP8B1, cluster 16855510 [2]: 3.98
- LDN expression value: BCAS1, cluster 16920475 [2]: 6.52
- LDN expression value: BMP8B, cluster 16685729 [2]: 4.53
- LDN expression value: C1QTNF9B-AS1, cluster 16773183 [2]: 3.69
- LDN expression value: CACNG5, cluster 16837160 [2]: 5.71
- LDN expression value: CATSPER2P1, cluster 16808340 [2]: 5.12
- LDN expression value: CGB2, cluster 16863963 [2]: 4.05
- LDN expression value: CKMT1A, cluster 16800268 [2]: 4.08
- LDN expression value: CLDN25, cluster 16731401 [2]: 4.26
- LDN expression value: CLVS2, cluster 17012223 [2]: 4.53
- LDN expression value: COL12A1, cluster 17020846 [2]: 8.23
- LDN expression value: CYTL1, cluster 16973934 [2]: 5.81
- LDN expression value: DLX2, cluster 16905108 [2]: 6.25
- LDN expression value: DLX6-AS1, cluster 17060039 [2]: 5.13
- LDN expression value: EFTUD1P1, cluster 16804141 [2]: 3.87
- LDN expression value: FLJ16124, cluster 16880774 [2]: 3.13
- LDN expression value: GABRQ, cluster 17107855 [2]: 6.76
- LDN expression value: GAD2, cluster 16703382 [2]: 3.71
- LDN expression value: GFRA1, cluster 16718670 [2]: 7.52
- LDN expression value: GJB2, cluster 16777185 [2]: 4.88
- LDN expression value: GPR126, cluster 17013126 [2]: 5.42
- LDN expression value: GRIK1, cluster 16924761 [2]: 7.51
- LDN expression value: GSX2, cluster 16966801 [2]: 4.62
- LDN expression value: HCG24, cluster 17028423 [2]: 2.38
- LDN expression value: ID1, cluster 16912362 [2]: 4.47
- LDN expression value: ID3, cluster 16683377 [2]: 5.5
- LDN expression value: IGLV3-9, cluster 16927827 [2]: 5.34
- LDN expression value: IL17RB, cluster 16941871 [2]: 4.55
- LDN expression value: INSM1, cluster 16911917 [2]: 6.13
- LDN expression value: KIAA1199, cluster 16803754 [2]: 4.07
- LDN expression value: LOC284632, cluster 16660753 [2]: 3.33
- LDN expression value: LOC100286922, cluster 16909695 [2]: 3.3
- LDN expression value: LPAR3, cluster 16688992 [2]: 5.8
- LDN expression value: LRRC7, cluster 16665976 [2]: 3.48
- LDN expression value: LRRTM1, cluster 16899533 [2]: 3.97
- LDN expression value: MIR1226, cluster 16940440 [2]: 4.98
- LDN expression value: MIR1321, cluster 17105179 [2]: 3.47
- LDN expression value: MIR3160-1, cluster 16724356 [2]: 4.18
- LDN expression value: MSLNL, cluster 16822561 [2]: 5.67
- LDN expression value: NUDT9P1, cluster 16716499 [2]: 3.56
- LDN expression value: OR2V1, cluster 17004061 [2]: 3.13
- LDN expression value: OTTHUMG00000156244, cluster 17056553 [2]: 4.16
- LDN expression value: OTTHUMG00000176466, cluster 16826102 [2]: 5.02
- LDN expression value: PAPPA2, cluster 16674151 [2]: 4.24
- LDN expression value: PDE5A, cluster 16979339 [2]: 4.13
- LDN expression value: PPP1R17, cluster 17044956 [2]: 5.13
- LDN expression value: RNA5SP482, cluster 16912470 [2]: 2.92
- LDN expression value: SCARNA1, cluster 16661495 [2]: 2.28
- LDN expression value: SCGN, cluster 17005473 [2]: 6.7
- LDN expression value: SERPINA3, cluster 16787902 [2]: 5.07
- LDN expression value: SLC1A2, cluster 16737325 [2]: 6.08
- LDN expression value: SLC1A4, cluster 16880712 [2]: 8.96
- LDN expression value: SLC1A5, cluster 16873632 [2]: 6.29
- LDN expression value: SNORA70B, cluster 16898108 [2]: 2.38
- LDN expression value: SNORD1B, cluster 16838101 [2]: 3.01
- LDN expression value: SNORD37, cluster 16867229 [2]: 3.63
- LDN expression value: SNORD88B, cluster 16874641 [2]: 5.05
- LDN expression value: SOX10, cluster 16934881 [2]: 6.63
- LDN expression value: SP8, cluster 17055689 [2]: 4.65
- LDN expression value: ST18, cluster 17077073 [2]: 2.85
- LDN expression value: TEX35, cluster 16674240 [2]: 3.05
- LDN expression value: TNFAIP6, cluster 16886491 [2]: 5.47
- LDN expression value: TNR, cluster 16696624 [2]: 8.09
- LDN expression value: TRAJ46, cluster 16782032 [2]: 3.99
- LDN expression value: TRIM65, cluster 16848961 [2]: 5.41
- LDN expression value: TTK, cluster 17010552 [2]: 5.68
- LDN expression value: UGT8, cluster 16970001 [2]: 8.99
- LDN expression value: WIF1, cluster 16767081 [2]: 5.73
- LDN expression value: ZIC2, cluster 16776103 [2]: 4.76
- LDN expression value: cluster 16662690 [2]: 3.02
- LDN expression value: cluster 16689704 [2]: 2.34
- LDN expression value: cluster 16697040 [2]: 3.18
- LDN expression value: cluster 16697217 [2]: 3.02
- LDN expression value: cluster 16703561 [2]: 5.3
- LDN expression value: cluster 16707466 [2]: 3.92
- LDN expression value: cluster 16740950 [2]: 5.53
- LDN expression value: cluster 16742286 [2]: 4.35
- LDN expression value: cluster 16758848 [2]: 4.29
- LDN expression value: cluster 16766940 [2]: 6.76
- LDN expression value: cluster 16781352 [2]: 4.74
- LDN expression value: cluster 16797929 [2]: 5.86
- LDN expression value: cluster 16834632 [2]: 3.21
- LDN expression value: cluster 16846798 [2]: 5.15
- LDN expression value: cluster 16906256 [2]: 3.32
- LDN expression value: cluster 16926511 [2]: 5.66
- LDN expression value: cluster 16928859 [2]: 2.2
- LDN expression value: cluster 16985206 [2]: 3.41
- LDN expression value: cluster 16997369 [2]: 4.3
- LDN expression value: cluster 17012233 [2]: 3.53
- LDN expression value: cluster 17042403 [2]: 7.47
- LDN expression value: cluster 17056789 [2]: 6.64
- LDN expression value: cluster 17063571 [2]: 2.81
- LDN expression value: cluster 17112263 [2]: 2.9
- LDN expression value: cluster 17117590 [2]: 5.68
- LDN expression value: cluster 17118266 [2]: 2.43
- LDN expression value: cluster 17118303 [2]: 3.61
- LDN expression value: cluster 17124590 [2]: 2.62
